From ChEMBL document CHEMBL2439958, “Inhibitory effect of oxygenated cholestan-3β-ol derivatives on the growth of Mycobacterium tuberculosis” (Bioorg Med Chem Lett, 2013)
pIC50: −log10 of the molar value. Converted amounts (≈) assume the structure as drawn.

Key:
[1] = tested on: Mycobacterium tuberculosis; experiment: microbe, parasite or virus in culture; assay type: functional; settings: H37Rv
Vero = experiment: Cytotoxicity against african green monkey Vero cells by tetrazolium dye reduction assay; assay type: ADME, cell-based; settings: Chlorocebus sabaeus
[2] = Selectivity index, ratio of IC50 for african green monkey Vero cells to MIC90 for Mycobacterium tuberculosis H37Rv; assay type: functional

Row | Structure (SMILES) | MIC90 [1] [µM] | pIC50 (Vero) | Selectivity Index [2]
1 | C[C@H](CCCC(C)(C)O)[C@H]1CC[C@H]2[C@@H]3CC=C4C[C@@H](O)CC[C@]4(C)[C@H]3CC[C@]12C | > 128 | < 3.89 | –
2 | C[C@@H](CO)CCC[C@@H](C)[C@H]1[C@@H](O)C[C@H]2[C@@H]3CC=C4C[C@@H](O)CC[C@]4(C)[C@H]3CC[C@]12C | 6 (≈ 2.51 µg/mL) | < 3.89 | >21
3 | CC(=O)O[C@H]1CC[C@@]2(C)[C@@H](CC(=O)[C@@H]3[C@@H]2CC[C@]2(C)[C@@H]([C@H](C)CCCC(C)C)CC[C@@H]32)C1 | > 128 | < 3.89 | –
4 | CC(C)CCC[C@@H](C)[C@H]1CC[C@H]2[C@@H]3C(=O)C[C@H]4C[C@@H](O)CC[C@]4(C)[C@H]3CC[C@]12C | 8 (≈ 3.22 µg/mL) | 4.21 | 7.8
5 | CC(C)CCC[C@@H](C)[C@H]1CC[C@H]2[C@@H]3[C@H](O)C[C@H]4C[C@@H](O)CC[C@]4(C)[C@H]3CC[C@]12C | > 128 | – | –
6 | CC(C)CCC[C@@H](C)[C@H]1CC[C@H]2[C@@H]3[C@@H](O)C[C@H]4C[C@@H](O)CC[C@]4(C)[C@H]3CC[C@]12C | > 128 | – | –
7 | CC(=O)O[C@H]1CC[C@@]2(C)C(=CC[C@H]3[C@@H]4CC[C@H]([C@H](C)CCCC(C)(C)O)[C@@]4(C)CC[C@@H]32)C1 | > 128 | – | –
8 | CC(=O)O[C@H]1CC[C@@]2(C)C(=CC(=O)[C@H]3[C@@H]4CC[C@H]([C@H](C)CCCC(C)(C)O)[C@@]4(C)CC[C@@H]32)C1 | > 128 | < 3.89 | –
9 | CC(=O)O[C@H]1CC[C@@]2(C)[C@@H](CC(=O)[C@@H]3[C@@H]2CC[C@]2(C)[C@@H]([C@H](C)CCCC(C)(C)O)CC[C@@H]32)C1 | > 128 | < 3.89 | –
10 | C[C@H](CCCC(C)(C)O)[C@H]1CC[C@H]2[C@@H]3[C@H](O)C[C@H]4C[C@@H](O)CC[C@]4(C)[C@H]3CC[C@]12C | > 128 | – | –
11 | C[C@H](CCCC(C)(C)O)[C@H]1CC[C@H]2[C@@H]3[C@@H](O)C[C@H]4C[C@@H](O)CC[C@]4(C)[C@H]3CC[C@]12C | 24 (≈ 10.1 µg/mL) | < 3.89 | >5.3
12 | CC(C)CCC[C@@H](C)[C@H]1CC[C@H]2[C@@H]3CC(=O)[C@H]4C[C@@H](O[Si](C)(C)C)CC[C@]4(C)[C@H]3CC[C@]12C | 3.5 (≈ 1.66 µg/mL) | 4.42 | 10.9
13 | CC(C)CCC[C@@H](C)[C@H]1CC[C@H]2[C@@H]3[C@H](F)C(=O)[C@H]4C[C@@H](O)CC[C@]4(C)[C@H]3CC[C@]12C | 4.6 (≈ 1.94 µg/mL) | 4.40 | 8.7
14 | CC(C)CCC[C@@H](C)[C@H]1CC[C@H]2[C@@H]3[C@H](F)[C@@H](O)[C@H]4C[C@@H](O)CC[C@]4(C)[C@H]3CC[C@]12C | > 128 | 4.39 | <0.4
15 | C[C@@H](CO)CCC[C@@H](C)[C@H]1CC[C@H]2[C@@H]3CC=C4C[C@@H](O)CC[C@]4(C)[C@H]3CC[C@]12C | > 128 | – | –
16 | CC(C)CCC[C@@H](C)[C@H]1CC[C@H]2[C@@H]3CC(=O)[C@H]4C[C@@H](O)CC[C@]4(C)[C@H]3CC[C@]12C [5alpha-CHOLESTAN-3beta-OL-6-ONE] | 6 (≈ 2.42 µg/mL) | 4.04 | 15.3
17 | CC(C)CCC[C@@H](C)[C@H]1CC[C@H]2[C@@H]3C(=O)C=C4C[C@@H](O)CC[C@]4(C)[C@H]3CC[C@]12C [7-OXOCHOLESTEROL] | > 128 | 4.12 | <0.6
18 | CC(=O)O[C@H]1CC[C@@]2(C)C(=CC(=O)[C@H]3[C@@H]4CC[C@H]([C@H](C)CCCC(C)C)[C@@]4(C)CC[C@@H]32)C1 [7-OXOCHOLESTERYL ACETATE] | > 128 | < 3.89 | –
19 | C[C@@H]1CC[C@@]2(OC1)O[C@H]1C[C@H]3[C@@H]4CC=C5C[C@@H](O)CC[C@]5(C)[C@H]4CC[C@]3(C)[C@H]1[C@@H]2C [DISOGENIN] | > 128 | – | –
20 | NNC(=O)c1ccncc1 [ISONIAZID] | 0.4 (≈ 0.0549 µg/mL) | < 3.89 | >320
21 | CO[C@H]1/C=C/O[C@@]2(C)Oc3c(C)c(O)c4c(O)c(c(/C=N/N5CCN(C)CC5)c(O)c4c3C2=O)NC(=O)/C(C)=C\C=C\[C@H](C)[C@H](O)[C@@H](C)[C@@H](O)[C@@H](C)[C@H](OC(C)=O)[C@@H]1C [RIFAMPIN] | 0.07 (≈ 0.0576 µg/mL) | – | –
